Test results from article PMC4294348 (Oncotarget, 2014).

Assay: Motesanib plasma pharmacokinetics (LC-MS/MS)
Format: in vivo, human
Details: for Cmax / AUC / Tmax: human, plasma; for Cmax / AUC: po; for AUC: time 0 to 24 hours; for Tmax: listed as 'Mean'
Method: Motesanib PK was assessed by comparing week 1 versus week 4 or 5 (motesanib without and with trebananib, respectively). Serum samples for the evaluation of minimum and maximum observed trebananib concentrations in the plasma were collected immediately before dosing on day 1 of weeks 2, 3, 4, 5, 6, 8, and every 8 weeks thereafter until 4 weeks after the last dose of study treatment. In addition, intensive sampling was conducted at the end of infusion, and 6, 24, 48, and 96 hours following dosing on day 1 of weeks 4 or 5. The samples were analysed for trebananib concentrations employing a validated enzyme-linked immunosorbent assay.
For motesanib, postdose samples were taken at 0.5, 1, 4, 6, and 24 hours during weeks 1 and 5 (without and with trebananib coadministration, respectively). Motesanib plasma concentrations were assessed with a validated liquid chromatography/mass spectrometry (LC-MS/MS) method at Cedra Corporation (Austin, TX).

[1] = 75 mg, motesanib 75 mg oral QD without trebananib, mean
[2] = 125 mg, motesanib 125 mg oral QD without trebananib, mean
[3] = motesanib 75 mg oral QD with trebananib 3 mg kg^−1, mean
[4] = motesanib 125 mg oral QD with trebananib 3 mg kg^−1, mean

SMILES: CC1(C)CNc2cc(NC(=O)c3cccnc3NCc3ccncc3)ccc21 [Motesanib]
- Cmax [1]: 466 ng/mL
- AUC [1]: 2580 ng·h/mL
- Cmax [2]: 559 ng/mL
- AUC [2]: 3130 ng·h/mL
- Cmax [3]: 507 ng/mL
- Cmax [4]: 541 ng/mL
- AUC [3]: 3180 ng·h/mL
- AUC [4]: 3920 ng·h/mL
- Tmax (motesanib 75 mg oral QD with trebananib 3 mg kg^−1): 1 h
- Tmax (motesanib 75 mg oral QD without trebananib): 1.1 h
- Tmax (motesanib 125 mg oral QD without trebananib): 1 h
- Effect of trebananib on motesanib PK (motesanib 75 mg or 125 mg with trebananib 3 mg kg^−1): did not appear to be affected
- CL (motesanib 75 mg oral QD without trebananib, mean): 0.348 mL/min/kg
